According to patent US10052310B2, “Separase inhibitors and uses thereof” (Baylor College of Medicine, priority 2013, dated 2018):

Legend:
Assay in all cases: MTT in vitro cytotoxicity assay
Jurkat = format: cell-based; conditions: Homo sapiens, Leukemia, 72 h, read-out: IC50 growth inhibition
Procedure: (§1) The inhibitory effect of Sepin-1 on cell growth was assayed using the 3-(4,5-dimethylthiazol-2yl)-2,5-diphenyl-tetrazolium bromide (MTT) colorimetric dye reduction method (Cancer Chemother. Pharmacol., 2006, 58, 13-23). One hundred thirty-five μl of exponentially growing cancer cells were plated at a density of 0.4-1.0×10^5 cells/well in a 96-well microtiter plate. After 16 h, Sepin-1 at specified concentrations was added to each well. After 72 h of continuous drug exposure, 15 μl of 5 mg/ml MTT was added to each well and the plates were incubated for 4 h at 37° C. Medium was replaced with 150 μl of DMSO to solubilize the formazan, and the optical density (OD) was measured at 550 nm using a microplate spectrophotometer (Anthos Analytical, Durham, N.C., USA). Cell viability was calculated by subtracting the background OD of media alone from the OD of test wells, then dividing by the OD of the control (untreated) wells. Replicates of 3 wells were used for each drug concentration. The in vitro cytotoxicity assay was repeated once and the IC50 reported was the average of two independent experiments.

HCT116 = format: cell-based; conditions: Homo sapiens, HCT-116, HCT116, Colon, 72 h, read-out: IC50 growth inhibition
Procedure: as §1

HL60 = format: cell-based; conditions: Homo sapiens, HL-60, HL60, Leukemia, 72 h, read-out: IC50 growth inhibition
Procedure: as §1

SK-N-BE(2) = format: cell-based; conditions: Homo sapiens, SKNBE2, Neuroblastoma, 72 h, read-out: IC50 growth inhibition
Procedure: as §1

CHLA-02-ATRT = format: cell-based; conditions: Homo sapiens, Brain, 72 h, read-out: IC50 growth inhibition
Procedure: as §1

CHP212 = format: cell-based; conditions: Homo sapiens, CHP-212, CHP212, Neuroblastoma, 72 h, read-out: IC50 growth inhibition
Procedure: as §1

Molt4 = format: cell-based; conditions: Homo sapiens, MOLT-4, Molt4, Leukemia, 72 h, read-out: IC50 growth inhibition
Procedure: as §1

SHEP = format: cell-based; conditions: Homo sapiens, Neuroblastoma, 72 h, read-out: IC50 growth inhibition
Procedure: as §1

JM1 = format: cell-based; conditions: Homo sapiens, JM1, Leukemia, 72 h, read-out: IC50 growth inhibition
Procedure: as §1

Raji = format: cell-based; conditions: Homo sapiens, Leukemia, 72 h, read-out: IC50 growth inhibition
Procedure: as §1

SK-BR-3 = format: cell-based; conditions: Homo sapiens, SK-BR-3, Breast, 72 h, read-out: IC50 growth inhibition
Procedure: as §1

T47D = format: cell-based; conditions: Homo sapiens, Breast, 72 h, read-out: IC50 growth inhibition
Procedure: as §1

A549 = format: cell-based; conditions: Homo sapiens, A549, Lung, 72 h, read-out: IC50 growth inhibition
Procedure: as §1

IMR-32 = format: cell-based; conditions: Homo sapiens, IMR-32, Neuroblastoma, 72 h, read-out: IC50 growth inhibition
Procedure: as §1

NGP = format: cell-based; conditions: Homo sapiens, Neuroblastoma, 72 h, read-out: IC50 growth inhibition
Procedure: as §1

HBL100 = format: cell-based; conditions: Homo sapiens, HBL-100, HBL100, Breast, 72 h, read-out: IC50 growth inhibition
Procedure: as §1

MCF10F = format: cell-based; conditions: Homo sapiens, MCF-10F, Breast, 72 h, read-out: IC50 growth inhibition
Procedure: as §1

MDA436 = format: cell-based; conditions: Homo sapiens, MDA436, Breast, 72 h, read-out: IC50 growth inhibition
Procedure: as §1

MDAMB231 = format: cell-based; conditions: Homo sapiens, MDA-MB-231, MDAMB231, Breast, 72 h, read-out: IC50 growth inhibition
Procedure: as §1

SY5Y = format: cell-based; conditions: Homo sapiens, Neuroblastoma, 72 h, read-out: IC50 growth inhibition
Procedure: as §1

SK-N-AS = format: cell-based; conditions: Homo sapiens, Neuroblastoma, 72 h, read-out: IC50 growth inhibition
Procedure: as §1

LAN-5 = format: cell-based; conditions: Homo sapiens, LA-N-5, LAN-5, Neuroblastoma, 72 h, read-out: IC50 growth inhibition
Procedure: as §1

TT = format: cell-based; conditions: Homo sapiens, Thyroid, 72 h, read-out: IC50 growth inhibition
Procedure: as §1

KCNR = format: cell-based; conditions: Homo sapiens, Neuroblastoma, 72 h, read-out: IC50 growth inhibition
Procedure: as §1

MCF7 = format: cell-based, human
Procedure: as §1

`CC1(C)[N+]([O-])=c2ccc([N+](=O)[O-])cc2=[N+]1[O-]` [Sepin-1, 2,2-dimethyl-5-nitro-2H-benzimidazole-1,3 dioxide] was tested, and the IC50 (Jurkat) was 14 µM, the IC50 (HCT116) was 16 µM and the IC50 (HL60) was 9 µM. The IC50 (SK-N-BE(2)) was 8.6 µM, the IC50 (CHLA-02-ATRT) was 7.6 µM and the IC50 (CHP212) was 9 µM. It also gave an IC50 (Molt4) of 3.2 µM, an IC50 (SHEP) of 62.5 µM and an IC50 (JM1) of 1 µM. It also gave an IC50 (Raji) of 4.4 µM, an IC50 (SK-BR-3) of 9 µM and an IC50 (T47D) of 30.8 µM. The IC50 (A549) was 53.1 µM, the IC50 (IMR-32) was 4.8 µM and the IC50 (NGP) was 7.8 µM. It also gave an IC50 (HBL100) of 11.5 µM, an IC50 (MCF10F) of 48.4 µM and an IC50 (MDA436) of 17.8 µM. For the same compound, the IC50 (MDAMB231) was 21.5 µM, the IC50 (SY5Y) was 4.9 µM and the IC50 (SK-N-AS) was 17.1 µM. For the same compound, the IC50 (LAN-5) was 5 µM, the IC50 (TT) was 33.5 µM and the IC50 (KCNR) was 4.9 µM. The IC50 (MCF7; Homo sapiens, MCF7, Breast, 72 h, read-out: IC50 growth inhibition) was 14.4 µM and the “sensitivity of MCF7 cells relative to MCF10f cells” value (MCF7; MCF7 versus MCF10f) was “over 3.3 times”.
